Laboratory results published in US8735360B2 (priority 2009, dated 2014).
Positions of bridges follow the written chain, without caps; N, C: chain ends. Residues, ends and D or L forms follow the SMILES beside them.

How the values were obtained:
GC-C [1] = biological target: T1, GC-C (Homo sapiens, UniProt P25092); type: binding
female CD-1 mice = type: in vivo; settings: oral gavage, % distance travelled by charcoal front in small intestine
GC-C [2] = biological target: T1, GC-C; type: cell-based; settings: for Ratio EC50 pH 8/EC50 pH 5: cGMP response in T84 cells
[3] = test system: ligated duodenal loops in rats; type: in vivo, rat; settings: 2.5 μg of peptide per loop
[4] = oral administration at therapeutic dose levels; cited from earlier work

T1 sequence (P25092 24-1073 limits assumed): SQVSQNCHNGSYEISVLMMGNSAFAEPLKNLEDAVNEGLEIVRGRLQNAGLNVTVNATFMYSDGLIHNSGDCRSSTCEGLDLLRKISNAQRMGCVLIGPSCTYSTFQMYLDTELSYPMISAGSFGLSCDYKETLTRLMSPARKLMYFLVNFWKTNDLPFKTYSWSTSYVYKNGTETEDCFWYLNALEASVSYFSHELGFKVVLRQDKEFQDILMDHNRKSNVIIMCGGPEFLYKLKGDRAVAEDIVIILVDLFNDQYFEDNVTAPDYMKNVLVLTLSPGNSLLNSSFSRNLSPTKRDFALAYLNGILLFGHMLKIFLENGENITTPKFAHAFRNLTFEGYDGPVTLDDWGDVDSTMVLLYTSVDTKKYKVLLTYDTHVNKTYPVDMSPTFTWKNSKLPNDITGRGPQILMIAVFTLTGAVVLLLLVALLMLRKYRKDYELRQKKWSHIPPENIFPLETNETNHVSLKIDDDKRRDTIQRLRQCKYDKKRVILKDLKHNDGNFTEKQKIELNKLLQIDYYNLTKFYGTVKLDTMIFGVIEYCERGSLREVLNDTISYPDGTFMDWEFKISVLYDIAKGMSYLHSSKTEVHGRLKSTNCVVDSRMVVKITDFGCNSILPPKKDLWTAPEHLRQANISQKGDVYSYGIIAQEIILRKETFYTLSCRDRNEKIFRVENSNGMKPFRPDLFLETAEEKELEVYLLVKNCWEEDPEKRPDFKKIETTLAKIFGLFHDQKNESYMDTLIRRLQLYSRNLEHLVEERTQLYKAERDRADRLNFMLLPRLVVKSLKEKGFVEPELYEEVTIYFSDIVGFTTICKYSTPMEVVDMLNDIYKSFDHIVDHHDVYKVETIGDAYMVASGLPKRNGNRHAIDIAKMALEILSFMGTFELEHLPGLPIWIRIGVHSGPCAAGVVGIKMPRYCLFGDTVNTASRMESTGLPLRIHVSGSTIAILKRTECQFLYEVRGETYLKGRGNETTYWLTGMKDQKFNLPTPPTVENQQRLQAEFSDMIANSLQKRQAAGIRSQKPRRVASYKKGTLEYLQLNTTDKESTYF

| Compound | Ratio Ki pH 8/Ki pH 5 (GC-C [1]) | ED50 in the gastrointestinal transit assay (female CD-1 mice) [µg/kg] | Ratio EC50 pH 8/EC50 pH 5 (GC-C [2]) | pH sensitivity with regard to binding and/or activation of GC-C (GC-C [2]; pH 5 versus pH 8) | Rate of HCO3- accumulation [3] [neq/min/cm] | Rate of fluid accumulation [3] [µL/min/cm] | Levels seen systemically after oral administration [4] |
| --- | --- | --- | --- | --- | --- | --- | --- |
| C[C@@H]1NC(=O)[C@@H]2CCCN2C(=O)[C@H](CC(N)=O)NC(=O)[C@@H]2CSSC[C@H](N)C(=O)N[C@H]3CSSC[C@H](NC1=O)C(=O)N[C@@H]([C@@H](C)O)C(=O)NCC(=O)N[C@H](C(=O)N[C@@H](Cc1ccc(O)cc1)C(=O)O)CSSC[C@H](NC(=O)[C@H](Cc1ccccc1)NC(=O)[C@H](CCC(=O)O)NC3=O)C(=O)N2 [Peptide 2, CCEFCCNPACTGCY] (H-CCEFCCNPACTGCY-OH; disulfide 1-6, 2-10, 5-13) | 0.97 | 2.06 | 13.2 | little or no pH sensitivity | 80 | 2.0 |  |
| C[C@@H]1NC(=O)[C@@H]2CCCN2C(=O)[C@H](CC(N)=O)NC(=O)[C@@H]2CSSC[C@H](NC(=O)[C@H](CC(=O)O)NC(=O)[C@@H](N)CC(=O)O)C(=O)N[C@H]3CSSC[C@H](NC1=O)C(=O)N[C@@H]([C@@H](C)O)C(=O)NCC(=O)N[C@H](C(=O)N[C@@H](Cc1ccc(O)cc1)C(=O)O)CSSC[C@H](NC(=O)[C@H](Cc1ccc(O)cc1)NC(=O)[C@H](CCC(=O)O)NC3=O)C(=O)N2 [Peptide 4, DDCCEYCCNPACTGCY] (H-DDCCEYCCNPACTGCY-OH; disulfide 3-8, 4-12, 7-15 (inferred); N-terminus and C-terminus assumed) | 5.27 | 6.3 | 48.0 |  | 80 | 2.0 |  |
| CC(C)C[C@@H]1NC(=O)[C@H](CCC(=O)O)NC(=O)[C@@H]2CSSC[C@@H]3NC(=O)[C@H](C)NC(=O)[C@@H]4CCCN4C(=O)[C@H](CC(N)=O)NC(=O)[C@H](CSSC[C@H](NC(=O)[C@H](CC(=O)O)NC(=O)[C@H](CC(=O)O)NC(=O)[C@@H](N)CC(=O)O)C(=O)N2)NC(=O)[C@H](CSSC[C@@H](C(=O)N[C@@H](Cc2ccc(O)cc2)C(=O)O)NC(=O)CNC(=O)[C@H]([C@@H](C)O)NC3=O)NC1=O [Peptide 17, DDDCCELCCNPACTGCY] | 6.35 | 2.9 | 386.2 |  |  | 1.8 |  |
| C[C@@H]1NC(=O)[C@@H]2CCCN2C(=O)[C@H](CC(N)=O)NC(=O)[C@@H]2CSSC[C@H](N)C(=O)N[C@H]3CSSC[C@H](NC1=O)C(=O)N[C@@H]([C@@H](C)O)C(=O)NCC(=O)N[C@H](C(=O)N[C@@H](Cc1ccc(O)cc1)C(=O)O)CSSC[C@H](NC(=O)[C@H](Cc1ccc(O)cc1)NC(=O)[C@H](CCC(=O)O)NC3=O)C(=O)N2 [linaclotide, Linaclotide] (H-CCEYCCNPACTGCY-OH; disulfide 1-6, 2-10, 5-13) |  |  |  |  |  |  | no detectable levels |
